From patent US6855710B2, “Substituted indolines with an inhibitory effect on various kinases and complexes of CDKs” (Boehringer Ingelheim Pharma KG, priority 1998, dated 2005)

First: O=C(O)COc1ccc(N/C(=C2\C(=O)Nc3ccccc32)c2ccccc2)cc1 [Example 290, (Z)-3-{1-[4-(carboxymethyloxy)-phenylamino]-1-phenyl-methylidene}-2-indolinone]
Second: CCOC(=O)c1ccc(N/C(=C2\C(=O)Nc3ccccc32)c2ccccc2)cc1 [Example 13, (Z)-3-[1-(4-ethoxycarbonyl-phenylamino)-1-phenyl-methylidene]-2-indolinone]
The melting point of the first is higher: 238 to 240 °C for the first, 227 to 228 °C for the second.

Compared with `CCN(CC)CC(=O)Nc1ccc(N/C(=C2\C(=O)Nc3ccc([N+](=O)[O-])cc32)c2ccccc2)cc1.Cl`, `CCCN(CCC)Cc1ccc(N/C(=C2\C(=O)Nc3ccc([N+](=O)[O-])cc32)c2ccccc2)cc1` [Example 161, (Z)-3-[1-(4-Dipropylaminomethyl-phenylamino)-1-phenyl-methylidene]-5-nitro-2-indolinone] is lower in melting point: 287 to 288 °C for the first, 160 to 162 °C for the second.

Compared with `CC(C)C(=O)N(CCN(C)C)c1ccc(N/C(=C2\C(=O)Nc3ccc([N+](=O)[O-])cc32)c2ccccc2)cc1` [Example 330, (Z)-3-{1-[4-(N-(2-dimethylaminoethyl)-N-isopropylcarbonyl-amino)-phenylamino]-1-phenyl-methylidene}-5-nitro-2-indolinone], `CCC(=O)N(CCN(C)C)c1ccc(N/C(=C2\C(=O)Nc3ccc([N+](=O)[O-])cc32)c2ccccc2)cc1` [Example 329, (Z)-3-{1-[4-(N-(2-dimethylaminoethyl)-N-propionyl-amino)-phenylamino]-1-phenyl-methylidene}-5-nitro-2-indolinone] is lower in melting point: 296 to 298 °C for the first, 263 to 265 °C for the second.

First: CCOC(=O)c1cccc(N/C(=C2\C(=O)Nc3ccccc32)c2ccccc2)c1 [Example 14, (Z)-3-[1-(3-ethoxycarbonyl-phenylamino)-1-phenyl-methylidene]-2-indolinone]
Second: NCc1cccc(N/C(=C2\C(=O)Nc3ccccc32)c2ccccc2)c1 [Example 68, (Z)-3-[1-(3-aminomethyl-phenylamino)-1-phenyl-methylidene]-2-indolinone]
The melting point of the first is higher: 194 to 195 °C for the first, 175 to 185 °C for the second.

First: CN(C)Cc1ccc(N/C(=C2\C(=O)Nc3ccccc32)c2ccccc2)cc1 [Example 266, (Z)-3-{1-[4-(dimethylaminomethyl)-phenylamino]-1-phenyl-methylidene}-2-indolinone]
Second: CC(=O)N(C)c1ccc(N/C(=C2\C(=O)Nc3ccccc32)c2ccccc2)cc1 [Example 47, (Z)-3-{1-[4-(N-acetyl-N-methyl-amino)-phenylamino]-1-phenyl-methylidene}-2-indolinone]
The melting point of the first is lower: 237 to 240 °C for the first, 287 to 288 °C for the second.

First: Cl.NCC(=O)Nc1ccc(N/C(=C2\C(=O)Nc3ccccc32)c2ccccc2)cc1
Second: CC(=O)NCC(=O)Nc1ccc(N/C(=C2\C(=O)Nc3ccccc32)c2ccccc2)cc1 [Example 368, (Z)-3-{1-[4-(acetylaminomethylcarbonylamino)-phenylamino]-1-phenyl-methylidene}-2-indolinone]
The melting point of the first is higher: 289 to 290 °C for the first, 245 to 247 °C for the second.

Compared with `O=C1Nc2ccccc2/C1=C(/Nc1cccc(NC(=O)C(F)(F)F)c1)c1ccccc1` [Example 33, (Z)-3-[1-(3-trifluoroacetylamino-phenylamino)-1-phenyl-methylidene]-2-indolinone], `CNc1cccc(N/C(=C2\C(=O)Nc3ccccc32)c2ccccc2)c1` [Example 37, (Z)-3-[1-(3-methylamino-phenylamino)-1-phenyl-methylidene]-2-indolinone] is lower in melting point: 273 to 276 °C for the first, 247 to 248 °C for the second.

First: O=C1Nc2ccc([N+](=O)[O-])cc2/C1=C(/Nc1ccc(CN2CCSCC2)cc1)c1ccccc1 [Example 229, (Z)-3-[1-(4-thiomorpholinomethyl-phenylamino)-1-phenyl-methylidene]-5-nitro-2-indolinone]
Second: CCOC(=O)C1CCN(Cc2ccc(N/C(=C3\C(=O)Nc4ccc([N+](=O)[O-])cc43)c3ccccc3)cc2)CC1 [Example 176, (Z)-3-{1-[4-(4-ethoxycarbonyl-piperidinomethyl)-phenylamino]-1-phenyl-methylidene}-5-nitro-2-indolinone]
The melting point of the first is higher: 276 to 277 °C for the first, 194 °C for the second.

Compared with `COCCN(C)C(=O)c1ccc(N/C(=C2\C(=O)Nc3ccccc32)c2ccccc2)cc1` [Example 389, (Z)-3-{1-[4-(N-(2-methoxyethyl)-N-methyl-aminocarbonyl)-phenylamino]-1-phenyl-methylidene}-2-indolinone], `CCOC(=O)CN(C(C)=O)c1ccc(N/C(=C2\C(=O)Nc3ccccc32)c2ccccc2)cc1` [Example 352, (Z)-3-{1-[4-(N-ethoxycarbonylmethyl-N-acetyl-amino)-phenylamino]-1-phenyl-methylidene}-2-indolinone] is higher in melting point: 198 to 200 °C for the first, 244 to 247 °C for the second.

First: CS(=O)(=O)NCc1ccc(N/C(=C2\C(=O)Nc3ccc([N+](=O)[O-])cc32)c2ccccc2)cc1 [Example 167, (Z)-3-[1-(4-methylsulphonylaminomethyl-phenylamino)-1-phenyl-methylidene]-5-nitro-2-indolinone]
Second: CN(Cc1ccc(N/C(=C2\C(=O)Nc3ccc([N+](=O)[O-])cc32)c2ccccc2)cc1)C1CCCC1 [Example 277, (Z)-3-{1-[4-(N-cyclopentyl-N-methyl-aminomethyl)-phenylamino]-1-phenyl-methylidene}-5-nitro-2-indolinone]
The melting point of the first is higher: 294 to 296 °C for the first, 228 °C for the second.

`CN(C(=O)CN1CCCC1)c1ccc(N/C(=C2\C(=O)Nc3ccc([N+](=O)[O-])cc32)c2ccccc2)cc1` [Example 364, (Z)-3-{1-[4-(N-(pyrrolidin-1-ylmethylcarbonyl)-N-methyl-amino)-phenylamino]-1-phenyl-methylidene}-5-nitro-2-indolinone] and `CN(C(=O)CN1CCNCC1)c1ccc(N/C(=C2\C(=O)Nc3ccc([N+](=O)[O-])cc32)c2ccccc2)cc1.Cl.Cl` cannot be ordered by melting point: 246 to 247 °C for the first, 246 to 248 °C for the second.

First: CN(C)CC(=O)NCc1cccc(N/C(=C2\C(=O)Nc3ccc([N+](=O)[O-])cc32)c2ccccc2)c1 [Example 106, (Z)-3-[1-(3-dimethylaminomethylcarbonylaminomethyl-phenylamino)-1-phenyl-methylidene]-5-nitro-2-indolinone]
Second: CC(C)(C)OC(=O)NCC(=O)NCc1cccc(N/C(=C2\C(=O)Nc3ccc([N+](=O)[O-])cc32)c2ccccc2)c1 [Example 136, (Z)-3-[1-(3-tert.butoxycarbonylaminomethylcarbonylaminomethyl-phenylamino)-1-phenyl-methylidene]-5-nitro-2-indolinone]
The melting point of the first is lower: 171 to 173 °C for the first, 228 °C for the second.

First: CN(Cc1ccc(N/C(=C2\C(=O)Nc3ccc([N+](=O)[O-])cc32)c2ccccc2)cc1)C1CCCCC1 [Example 232, (Z)-3-{1-[4-(N-cyclohexyl-N-methyl-aminomethyl)-phenylamino]-1-phenyl-methylidene}-5-nitro-2-indolinone]
Second: CN(Cc1ccc(N/C(=C2\C(=O)Nc3ccc([N+](=O)[O-])cc32)c2ccccc2)cc1)c1ncccn1 [Example 272, (Z)-3-{1-[4-((N-methyl-N-pyrimidin-2-yl-amino)-methyl)-phenylamino]-1-phenyl-methylidene}-5-nitro-2-indolinone]
The melting point of the first is lower: 215 °C for the first, 236 to 239 °C for the second.

First: COC(=O)/C=C/c1ccc(/C(Nc2ccc(OC)cc2)=C2/C(=O)Nc3ccc([N+](=O)[O-])cc32)cc1 [Example 435, (Z)-3-{1-(4-methoxyphenylamino)-1-[(E)-4-(2-methoxycarbonylethenyl)-phenyl]-methylidene}-5-nitro-2-indolinone]
Second: Cc1cccc(/C(Nc2ccc(CN(C)C)cc2)=C2/C(=O)Nc3ccc([N+](=O)[O-])cc32)c1 [Example 214, (Z)-3-[1-(4-dimethylaminomethyl-phenylamino)-1-(m-tolyl)-methylidene]-5-nitro-2-indolinone]
The melting point of the first is higher: 266 to 270 °C for the first, 210 °C for the second.

First: CC(=O)NCc1ccc(/C(Nc2cccc(N(CC(N)=O)S(C)(=O)=O)c2)=C2/C(=O)Nc3ccccc32)cc1 [Example 417, (Z)-3-{1-[3-(N-aminocarbonylmethyl-N-methylsulphonyl-amino)-phenylamino]-1-(4-acetylaminomethyl-phenyl)-methylidene}-2-indolinone]
Second: CCCS(=O)(=O)N(CC(=O)N(C)C)c1ccc(N/C(=C2\C(=O)Nc3ccccc32)c2ccccc2)cc1 [Example 305, (Z)-3-{1-[4-(N-(dimethylaminocarbonylmethyl)-N-propylsulphonyl-amino)-phenylamino]-1-phenyl-methylidene}-2-indolinone]
The melting point of the first is higher: 215 °C for the first, 178 to 180 °C for the second.

First: CN1CCN(CCc2ccc(N/C(=C3\C(=O)Nc4ccc([N+](=O)[O-])cc43)c3ccccc3)cc2)CC1 [Example 135, (Z)-3-{1-[4-(2-(4-methylpiperazino)-ethyl)-phenylamino]-1-phenyl-methylidene}-5-nitro-2-indolinone]
Second: O=C1Nc2ccc([N+](=O)[O-])cc2/C1=C(/Nc1ccc(CCN2CCC(C(=O)O)CC2)cc1)c1ccccc1 [Example 263, (Z)-3-{1-[4-(2-(4-carboxypiperidino)-ethyl)-phenylamino]-1-phenyl-methylidene}-5-nitro-2-indolinone]
The melting point of the first is lower: 238 to 240 °C for the first, 287 to 288 °C for the second.

In the case of `CN(C)CCCc1ccc(N/C(=C2\C(=O)Nc3ccc([N+](=O)[O-])cc32)c2ccccc2)cc1` [Example 283, (Z)-3-{1-[4-(3-dimethylamino-propyl)-phenylamino]-1-phenyl-methylidene}-5-nitro-2-indolinone], the melting point is reported as 269 °C (dec.).
For `O=C(O)CN(C(=O)c1ccccc1)c1ccc(N/C(=C2\C(=O)Nc3ccccc32)c2ccccc2)cc1` [Example 361, (Z)-3-{1-[4-(N-carboxymethyl-N-benzoyl-amino)-phenylamino]-1-phenyl-methylidene}-2-indolinone], the melting point was 277 °C (dec.).
For `Cl.NC(Cc1ccc(N/C(=C2\C(=O)Nc3ccc([N+](=O)[O-])cc32)c2ccccc2)cc1)C(=O)O` (stereo not drawn), the melting point was 225 °C (dec.).
With `CC(C)(C)OC(=O)NCCc1ccc(N/C(=C2\C(=O)Nc3ccc([N+](=O)[O-])cc32)c2ccc(CN)cc2)cc1` [Example 155, (Z)-3-{1-[4-(2-tert.butoxycarbonylamino-ethyl)-phenylamino]-1-(4-aminomethyl-phenyl)-methylidene}-5-nitro-2-indolinone] the melting point was 215 to 217 °C (dec.).
